From US8541585B2, “N-acyl cyclic amine derivative or pharmaceutically acceptable salt thereof” (Dainippon Sumitomo Pharma Co., Ltd., priority 2010, dated 2013)

Columns and labels:
human D2L receptor = human D2L receptor (Homo sapiens, UniProt P14416); assay: Dopamine D2L receptor binding assay ([3H]-spiperone); details: 10 nM test drug, [3H]-spiperone 0.5 nM, human D2L receptor-expressing CHO cell membrane; for inhibition at 0.01 µM: read-out: BINDING INHIBITION RATE (%) D2L 10 nM
Description: (1) Dopamine D2L Receptor Binding Assay
D2L receptor binding assay was performed in reference to a method described by Hirose et al. (Japan. J. Pharmacol., 53, 321-329, 1990). After a reaction in a total volume of 200 μL of 50 mM Tris-HCl (pH=7.6) buffer solution containing 50 μL of [^3H]-spiperone (final concentration 0.5 nM), 1 μL of test drug in DMSO, and 149 μL of human D2L receptor-expressing CHO cell membrane sample, human D2L receptor binding activity of [^3H]-spiperone was measured. The reaction solution let stand for 60 minutes at room temperature, and then it was quickly added on a glass fiber filter plate (Multiscreen FB, Millipore inc.) coated with 0.3% polyethyleneimine (PEI) and filtered under reduced pressure. The glass fiber filter was washed with 200 μL of ice-cooled 50 mM Tris-HCl (pH=7.6) twice, repeatedly filtered under reduced pressure, and then transferred to a vial containing 4 mL of Ecoscint A (National Diagnostics inc.). The residual radioactivity on the glass fiber filter was measured by a liquid scintillation counter. Nonspecific binding was measured in the presence of 10 μM of spiperone, and [^3H]-spiperone binding inhibition rate in the presence of 10 nM of test drug was determined. The larger binding inhibition rate (%) means that test drug has the higher binding affinity for human D2L receptor.

human 5-HT2A receptor = biological target: T1, human 5-HT2A receptor (Homo sapiens, UniProt P28223); assay: Serotonin 5-HT2A receptor binding assay ([3H]-ketanserin); details: 10 nM test drug; [3H]-ketanserin 1 nM; human 5-HT2A receptor-expressing CHO cell membrane; read-out: BINDING INHIBITION RATE (%) 5HT2A 10 nM
T1 construct: expressed in transfected cells; host or cells: CHO cells (membrane preparation)
T1 sequence (P28223 whole entry): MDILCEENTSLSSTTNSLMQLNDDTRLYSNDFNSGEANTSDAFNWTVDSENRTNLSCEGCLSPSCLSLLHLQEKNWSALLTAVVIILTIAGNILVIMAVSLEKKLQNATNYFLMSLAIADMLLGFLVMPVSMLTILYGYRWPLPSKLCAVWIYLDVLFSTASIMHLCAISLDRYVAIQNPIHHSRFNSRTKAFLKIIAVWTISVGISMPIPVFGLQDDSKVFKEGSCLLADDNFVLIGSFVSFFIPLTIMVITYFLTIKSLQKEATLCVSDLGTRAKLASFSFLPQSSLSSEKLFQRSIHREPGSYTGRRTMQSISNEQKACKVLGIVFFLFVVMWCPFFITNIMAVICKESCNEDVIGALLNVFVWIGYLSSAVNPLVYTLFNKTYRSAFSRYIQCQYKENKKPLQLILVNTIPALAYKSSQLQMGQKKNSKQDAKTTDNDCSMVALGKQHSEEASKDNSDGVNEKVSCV
Description: (2) Serotonin 5-HT2A Receptor Binding Assay
5-HT2A receptor binding assay was performed in reference to a method described by Hirose et al. (Japan. J. Pharmacol., 53, 321-329, 1990). After a reaction in a total volume of 200 μL of 50 mM Tris-HCl (pH=7.6) buffer solution containing 50 μL of [^3H]-ketanserin (final concentration 1 nM), 1 μL of test drug in DMSO, and 149 μL of human 5-HT2A receptor-expressing CHO cell membrane sample, human 5-HT2A receptor binding activity of [^3H]-ketanserin was measured. The reaction solution let stand for 15 minutes at 37° C., and then it was quickly added on a glass fiber filter plate (Multiscreen FB, Millipore inc.) coated with 0.05% Brij 35 and filtered under reduced pressure. The glass fiber filter was washed with 200 μL of ice-cooled 50 mM Tris-HCl (pH=7.6) twice, repeatedly filtered under reduced pressure, and then transferred to a vial containing 4 mL of Ecoscint A (National Diagnostics inc.). The residual radioactivity on the glass fiber filter was measured by a liquid scintillation counter. Nonspecific binding was measured in the presence of 10 μM of MDL-100907, and [^3H]-ketanserin binding inhibition rate in the presence of 1 nM or 10 nM of test drug was determined.

human 5-HT6 receptor = biological target: T2, human 5-HT6 receptor (Homo sapiens, UniProt P50406); assay: Serotonin 5-HT6 receptor binding assay ([3H]-clozapine); details: 100 nM test drug, [3H]-clozapine 2 nM, human 5-HT6 receptor-expressing CHO cell membrane; for inhibition at 0.1 µM: read-out: BINDING INHIBITION RATE (%) 5HT6 100 nM
T2 construct: expressed in transfected cells; host or cells: CHO cells (membrane preparation)
T2 sequence (P50406 whole entry): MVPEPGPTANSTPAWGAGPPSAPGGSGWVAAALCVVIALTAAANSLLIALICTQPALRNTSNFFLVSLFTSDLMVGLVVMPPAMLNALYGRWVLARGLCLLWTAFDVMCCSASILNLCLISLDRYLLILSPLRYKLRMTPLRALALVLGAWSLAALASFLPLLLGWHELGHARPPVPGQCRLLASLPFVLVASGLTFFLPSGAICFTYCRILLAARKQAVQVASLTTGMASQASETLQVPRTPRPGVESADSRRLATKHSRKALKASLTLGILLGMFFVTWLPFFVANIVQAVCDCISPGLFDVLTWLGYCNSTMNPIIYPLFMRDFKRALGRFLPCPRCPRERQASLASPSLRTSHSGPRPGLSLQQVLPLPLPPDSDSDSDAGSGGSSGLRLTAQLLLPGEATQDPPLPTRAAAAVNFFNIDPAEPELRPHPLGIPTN
Description: (3) Serotonin 5-HT6 Receptor Binding Assay
After a reaction in a total volume of 200 μL of 50 mM Tris-HCl (pH=7.6), 4 mM CaCl2, and 0.5 mM EDTA buffer solution containing 50 μL of [^3H]-clozapine (final concentration 2 nM), 1 μL of test drug in DMSO, and 149 μL of human 5-HT6 receptor-expressing CHO cell membrane sample, human 5-HT6 receptor binding activity of [^3H]-clozapine was measured. The reaction solution let stand for 40 minutes at room temperature, and then it was quickly added on a glass fiber filter plate (Multiscreen FB, Millipore inc.) coated with 0.3% polyethyleneimine (PEI) and filtered under reduced pressure. The glass fiber filter was washed with 200 μL of ice-cooled 50 mM Tris-HCl (pH=7.6) twice, repeatedly filtered under reduced pressure, and then transferred to a vial containing 4 mL of Ecoscint A (National Diagnostics inc.). The residual radioactivity on the glass fiber filter was measured by a liquid scintillation counter. Nonspecific binding was measured in the presence of 10 μM of SB-258585, and [^3H]-clozapine binding inhibition rate in the presence of 100 nM of test drug was determined.

human α1D receptor = biological target: T3, human α1D receptor (Homo sapiens, UniProt P25100); assay: Adrenaline α1D receptor binding assay ([3H]-prazosin); details: 100 nM test drug, [3H]-prazosin 0.6 nM, human α1D receptor-expressing CHO cell membrane; for inhibition at 0.1 µM: read-out: BINDING INHIBITION RATE (%) α1D 100 nM
T3 construct: expressed in transfected cells; host or cells: CHO cells (membrane preparation)
T3 sequence (P25100 1-572): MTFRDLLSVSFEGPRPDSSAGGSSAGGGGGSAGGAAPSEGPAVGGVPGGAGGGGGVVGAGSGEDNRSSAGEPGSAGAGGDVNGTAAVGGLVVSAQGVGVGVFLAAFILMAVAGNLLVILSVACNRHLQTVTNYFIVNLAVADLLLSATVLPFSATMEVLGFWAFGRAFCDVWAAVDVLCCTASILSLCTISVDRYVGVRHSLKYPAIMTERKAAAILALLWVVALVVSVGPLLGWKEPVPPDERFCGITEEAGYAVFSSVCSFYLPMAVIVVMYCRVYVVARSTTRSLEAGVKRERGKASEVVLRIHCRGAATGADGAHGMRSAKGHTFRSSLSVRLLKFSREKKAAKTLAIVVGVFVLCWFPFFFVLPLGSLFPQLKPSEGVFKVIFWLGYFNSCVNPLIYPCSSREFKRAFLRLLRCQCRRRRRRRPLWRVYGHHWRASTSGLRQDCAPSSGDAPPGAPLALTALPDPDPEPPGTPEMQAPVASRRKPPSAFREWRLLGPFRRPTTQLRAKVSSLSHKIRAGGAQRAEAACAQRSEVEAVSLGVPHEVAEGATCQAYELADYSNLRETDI
Description: (4) Adrenaline α1D Receptor Binding Assay
After a reaction in a total volume of 200 μL of 50 mM Tris-HCl (pH=7.6) buffer solution containing 50 μL of [^3H]-prazosin (final concentration 0.6 nM), 1 μL of test drug in DMSO, and 149 μL of human α1D receptor-expressing CHO cell membrane sample, human α1D receptor binding activity of [^3H]-prazosin was measured. The reaction solution let stand for 30 minutes at room temperature, and then it was quickly added on a glass fiber filter plate (Multiscreen FB, Millipore inc.) coated with 0.3% polyethyleneimine (PEI) and filtered under reduced pressure. The glass fiber filter was washed with 200 μL of ice-cooled 50 mM Tris-HCl (pH=7.6) twice, repeatedly filtered under reduced pressure, and then transferred to a vial containing 4 mL of Ecoscint A (National Diagnostics inc.). The residual radioactivity on the glass fiber filter was measured by a liquid scintillation counter. Nonspecific binding was measured in the presence of 1 μM of prazosin, and [^3H]-prazosin binding inhibition rate in the presence of 100 nM of test drug was determined.

Chain of human D2L receptor (P14416 whole entry): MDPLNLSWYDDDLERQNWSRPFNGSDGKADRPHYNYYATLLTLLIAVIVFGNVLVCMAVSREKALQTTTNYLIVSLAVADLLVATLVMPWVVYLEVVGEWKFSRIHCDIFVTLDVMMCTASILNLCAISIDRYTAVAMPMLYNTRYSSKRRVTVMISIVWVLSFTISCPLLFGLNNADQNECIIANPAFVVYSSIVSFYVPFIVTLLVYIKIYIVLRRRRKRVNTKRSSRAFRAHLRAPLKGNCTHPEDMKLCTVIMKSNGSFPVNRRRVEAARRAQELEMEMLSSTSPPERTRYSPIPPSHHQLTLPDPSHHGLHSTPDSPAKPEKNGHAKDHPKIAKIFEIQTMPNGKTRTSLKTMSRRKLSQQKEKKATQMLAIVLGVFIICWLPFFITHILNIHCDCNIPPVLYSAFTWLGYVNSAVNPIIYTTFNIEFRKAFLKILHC

Molecule	inhibition at 0.01 µM (human D2L receptor)	inhibition at 0.01 µM (human 5-HT2A receptor)	inhibition at 0.1 µM (human 5-HT6 receptor)	inhibition at 0.1 µM (human α1D receptor)	BINDING INHIBITION RATE (%) D2L 10 nM (human D2L receptor)	BINDING INHIBITION RATE (%) 5HT6 100 nM (human 5-HT6 receptor)	BINDING INHIBITION RATE (%) α1D 100 nM (human α1D receptor)
O=C(c1cc2cc(F)ccc2[nH]1)N1CCOC[C@H]1CCN1CCC(c2c[nH]c3ccccc23)CC1 [Example 7, (R)-(3-(2-(4-(1H-Indol-3-yl)piperidin-1-yl)ethyl)morpholino)(5-fluoro-1H-indol-2-yl)methanone]	85%	100%	97%	86%	–	–	–
C[C@H]1CC[C@@H](CCN2CCC(C(=O)c3ccc(F)cc3)CC2)N1C(=O)c1cc2ccc(C(F)(F)F)cc2[nH]1 [Example 167, ((2S,5S)-2-(2-(4-(4-Fluorobenzoyl)piperidin-1-yl)ethyl)-5-methylpyrrolidin-1-yl)(6-(trifluoromethyl)-1H-indol-2-yl)methanone]	75%	–	95%	33%	–	–	–
Cc1ccc2cc(C(=O)N3CCC[C@H]3CCN3CCN(c4n[nH]c5ccc(F)cc45)CC3)[nH]c2c1 [Example 25]	28%	–	82%	–	–	–	–
O=C(c1cc2ccc(F)cc2[nH]1)N1CCC[C@H](CN2CCN(c3n[nH]c4ccccc34)CC2)C1 [Example 22]	26%	–	85%	–	–	–	–
Cc1ccc2cc(C(=O)N3[C@H](CCN4CCC(C(=O)c5ccc(F)cc5)CC4)CC[C@@H]3C)[nH]c2c1 [Example 166, ((2S,5S)-2-(2-(4-(4-Fluorobenzoyl)piperidin-1-yl)ethyl)-5-methylpyrrolidin-1-yl)(6-methyl-1H-indol-2-yl)methanone]	88%	–	97%	62%	–	–	–
O=C(c1cc2cc(O)ccc2[nH]1)N1CCOC[C@H]1CCN1CCC(c2c[nH]c3ccccc23)CC1 [Example 41]	85%	–	78%	81%	–	–	–
O=C(c1ccc(F)cc1)C1CCN(CC[C@@H]2CCCN2C(=O)c2cc3ccccc3n2C2CCOCC2)CC1 [Example 48]	82%	–	97%	40%	–	–	–
N#CCCc1ccc2c(Cl)c(C(=O)N3CCC[C@H]3CCN3CCC(C(=O)c4ccc(F)cc4)CC3)[nH]c2c1 [Example 55]	83%	–	100%	–	–	–	–
Cc1ccc2cc(C(=O)N3C[C@H](F)C[C@H]3CCN3CCC(C(=O)c4ccc(F)cc4)CC3)[nH]c2c1 [Example 53]	89%	–	94%	48%	–	–	–
CC(=O)Nc1cccc2cc(C(=O)N3CCC[C@H]3CCN3CCC(C(=O)c4ccc(F)cc4)CC3)n(C)c12 [Example 63]	0%	–	17%	–	–	–	–
O=C(c1ccc(F)cc1)C1CCN(CC[C@@H]2CCCN2C(=O)c2[nH]c3ccccc3c2-c2ccccc2)CC1 [Example 47]	72%	–	94%	85%	–	–	–
O=C(c1ccc(F)cc1)C1CCN(CC[C@@H]2CCCN2C(=O)c2cc3ccccc3n2-c2ccncc2)CC1 [Example 49]	83%	–	75%	30%	–	–	–
C[C@H]1CC[C@@H](CCN2CCC(C(=O)c3ccc(F)cc3)CC2)N1C(=O)c1cc2ccc(SC(F)(F)F)cc2[nH]1 [Example 168, ((2S,5S)-2-(2-(4-(4-Fluorobenzoyl)piperidin-1-yl)ethyl)-5-methylpyrrolidin-1-yl)(6-(trifluoromethylthio)-1H-indol-2-yl)methanone]	81%	–	94%	61%	–	–	–
O=C(c1cccc(-c2ccccc2)c1)N1CCC[C@@H](CCN2CCN(c3nsc4ccccc34)CC2)C1 [Example 57]	69%	–	86%	76%	–	–	–
Cc1ccc2cc(C(=O)N3CCC[C@H]3CCN3CCN(c4n[nH]c5cc(F)ccc45)CC3)[nH]c2c1 [Example 24]	88%	–	98%	64%	–	–	–
O=C(/C=C/c1ccc2c(c1)OCO2)N1CCC[C@H](CCN2CCC(c3noc4cc(F)ccc34)CC2)C1 [Example 14]	75%	–	92%	89%	–	–	–
COc1ccc2[nH]c(C(=O)N3CCCC[C@H]3CCN3CCC(c4coc5cc(F)ccc45)CC3)cc2c1 [Example 30]	92%	95%	65%	–	–	–	–
CCOCCO[C@@H]1C[C@@H](CCN2CCC(c3c[nH]c4ccccc34)CC2)N(C(=O)c2cc3ccc(OC)cc3[nH]2)C1 [Example 37]	0%	91%	78%	–	–	–	–
(S)-(2-(2-(4-(6-Fluorobenzo[d]isoxazol-3-yl)piperidin-1-yl)ethyl)pyrrolidin-1-yl)(3-phenyl-1H-pyrazol-5-yl)methanone hydrochloride [Example 170]	–	–	–	–	87%	95%	83%
